Biological target: T1, chimeric human H3 receptor (Homo sapiens, UniProt Q9Y5N1)
T1 construct: made in house; host or cells: Sf9 insect cells (baculovirus); P2 membrane preparation
Experiment: Chimeric human H3 receptor GTP binding assay (agonist-stimulated GTP-gamma35S binding, Example 7)
Assay type: biochemical
Details: Table II "Ki", symbol *; assay of Example 7
In short: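 Sf9 membranes co-expressing chimeric human H3 receptor and heterotrimeric G-protein, 35 μg/tube, in pH 7.4 Tris buffer with 10 μM GDP. Test compounds (10^−10–10^−6 M) competed against 1 μM histamine, […] GTP-gamma35S, 60 min at room temperature. Filter-bound radioactivity counted; IC50 converted to Ki by Cheng-Prusoff. Agonism/inverse agonism tested without histamine (EC50).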

T1 sequence (Q9Y5N1 with tags, fused parts or gaps): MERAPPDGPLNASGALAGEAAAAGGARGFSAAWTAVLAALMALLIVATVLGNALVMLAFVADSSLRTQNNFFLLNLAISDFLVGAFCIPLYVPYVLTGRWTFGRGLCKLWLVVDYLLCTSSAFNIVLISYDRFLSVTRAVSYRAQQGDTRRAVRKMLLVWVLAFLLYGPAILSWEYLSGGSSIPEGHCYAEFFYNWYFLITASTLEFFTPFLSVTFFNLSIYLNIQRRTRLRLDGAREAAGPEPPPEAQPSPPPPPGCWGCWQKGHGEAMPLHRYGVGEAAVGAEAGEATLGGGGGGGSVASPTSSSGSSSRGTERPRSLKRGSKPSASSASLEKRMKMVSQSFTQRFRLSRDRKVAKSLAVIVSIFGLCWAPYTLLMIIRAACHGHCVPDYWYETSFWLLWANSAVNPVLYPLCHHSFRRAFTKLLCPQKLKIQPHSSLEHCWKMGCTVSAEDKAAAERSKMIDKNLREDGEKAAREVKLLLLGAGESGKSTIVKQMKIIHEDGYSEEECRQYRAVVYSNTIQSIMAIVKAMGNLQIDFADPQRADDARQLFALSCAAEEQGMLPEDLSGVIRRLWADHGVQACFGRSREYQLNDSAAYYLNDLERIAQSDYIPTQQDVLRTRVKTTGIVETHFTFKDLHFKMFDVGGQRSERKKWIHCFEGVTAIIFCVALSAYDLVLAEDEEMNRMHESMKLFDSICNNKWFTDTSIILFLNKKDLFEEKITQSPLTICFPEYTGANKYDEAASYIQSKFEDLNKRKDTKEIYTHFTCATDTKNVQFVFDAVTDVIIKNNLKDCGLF

| Compound | Ki |
| --- | --- |
| COCCC1CCCN(c2ccc3c(n2)CCN(CC(=O)N2CCN(C4CCC4)CC2)C3)C1 (centres unmarked) [Compound 674, 6-[2-(4-cyclobutylpiperazin-1-yl)-2-oxoethyl]-2-[3-(2-methoxyethyl)piperidin-1-yl]-5,6,7,8-tetrahydro-1,6-naphthyridine] | < 1 µM |
| N#CCC1CCN(c2ccc3c(n2)CCN(CC(=O)N2CCN(C4CCC4)CC2)C3)CC1 [Compound 675, (1-{6-[2-(4-cyclobutylpiperazin-1-yl)-2-oxoethyl]-5,6,7,8-tetrahydro-1,6-naphthyridin-2-yl}piperidin-4-yl)acetonitrile] | < 1 µM |
| CC1CCCCN1c1ccc2c(n1)CCN(CC(=O)N1CCN(C3CCC3)CC1)C2 (centres unmarked) [Compound 676, 6-[2-(4-cyclobutylpiperazin-1-yl)-2-oxoethyl]-2-(2-methylpiperidin-1-yl)-5,6,7,8-tetrahydro-1,6-naphthyridine] | < 1 µM |
| CN(c1ccc2c(n1)CCN(CC(=O)N1CCN(C3CCC3)CC1)C2)C1CCCCC1 [Compound 677, 6-[2-(4-cyclobutylpiperazin-1-yl)-2-oxoethyl]-N-cyclohexyl-N-methyl-5,6,7,8-tetrahydro-1,6-naphthyridin-2-amine] | < 1 µM |

Second part, the molecule after the results:

| Ki | Compound |
| --- | --- |
| < 1 µM | COC[C@@H]1CCCN1c1ccc2c(n1)CCN(CC(=O)N1CCN(C3CCC3)CC1)C2 [Compound 678, 6-[2-(4-cyclobutylpiperazin-1-yl)-2-oxoethyl]-2-[(2S)-2-(methoxymethyl)pyrrolidin-1-yl]-5,6,7,8-tetrahydro-1,6-naphthyridine] |
| < 1 µM | COC[C@H]1CCCN1c1ccc2c(n1)CCN(CC(=O)N1CCN(C3CCC3)CC1)C2 [Compound 679, 6-[2-(4-cyclobutylpiperazin-1-yl)-2-oxoethyl]-2-[(2R)-2-(methoxymethyl)pyrrolidin-1-yl]-5,6,7,8-tetrahydro-1,6-naphthyridine] |
| < 1 µM | COC1CCN(c2ccc3c(n2)CCN(CC(=O)N2CCN(C4CCC4)CC2)C3)CC1 [Compound 681, 6-[2-(4-cyclobutylpiperazin-1-yl)-2-oxoethyl]-2-(4-methoxypiperidin-1-yl)-5,6,7,8-tetrahydro-1,6-naphthyridine] |

Same assay, conditions: Table II; assay of Example 7

| Ki | Compound |
| --- | --- |
| < 1 µM | O=C(CN1CCc2nc(N3CCCC(C(F)(F)F)C3)ccc2C1)N1CCN(C2CCC2)CC1 (centres unmarked) [Compound 682, 6-[2-(4-cyclobutylpiperazin-1-yl)-2-oxoethyl]-2-[3-(trifluoromethyl)piperidin-1-yl]-5,6,7,8-tetrahydro-1,6-naphthyridine] |
| < 1 µM | N#Cc1ccc(-c2ncc3c(n2)CCN(CC(=O)N2CCN(C4CCC4)CC2)C3)cc1 [Compound 683, 4-{6-[2-(4-cyclobutylpiperazin-1-yl)-2-oxoethyl]-5,6,7,8-tetrahydropyrido[4,3-d]pyrimidin-2-yl]benzonitrile] |
| < 1 µM | O=C(CN1CCc2nn(C3CCCC3)cc2C1)N1CCN(C2CCC2)CC1 [Compound 684, 5-[2-(4-cyclobutylpiperazin-1-yl)-2-oxoethyl]-2-cyclopentyl-4,5,6,7-tetrahydro-2H-pyrazolo[4,3-c] pyridine] |
| < 1 µM | O=C(CN1CCc2nn(C3CCOCC3)cc2C1)N1CCN(C2CCC2)CC1 [Compound 685] |
| < 1 µM | N#Cc1cnc(-n2cc3c(n2)CCN(CC(=O)N2CCN(C4CCC4)CC2)C3)nc1 [Compound 686, 2-{5-[2-(4-cyclobutylpiperazin-1-yl)-2-oxoethyl]-4,5,6,7-tetrahydro-2H-pyrazolo[4,3-c]pyridin-2-yl}pyrimidine-5-carbonitrile] |
| < 1 µM | N#Cc1ccc(-n2cc3c(n2)CCN(CC(=O)N2CCN(C4CCC4)CC2)C3)nc1 [Compound 687, 6-{5-[2-(4-cyclobutylpiperazin-1-yl)-2-oxoethyl]-4,5,6,7-tetrahydro-2H-pyrazolo[4,3-c]pyridin-2-yl}nicotinonitrile] |
| < 1 µM | O=C(CN1CCc2nn(-c3ccc4nncn4n3)cc2C1)N1CCN(C2CCC2)CC1 [Compound 688, 6-{5-[2-(4-cyclobutylpiperazin-1-yl)-2-oxoethyl]-4,5,6,7-tetrahydro-2H-pyrazolo[4,3-c]pyridin-2-yl}[1,2,4]triazolo[4,3-b]pyridazine] |
| < 1 µM | Cc1nnc2ccc(-n3cc4c(n3)CCN(CC(=O)N3CCN(C5CCC5)CC3)C4)nn12 [Compound 689, 6-{5-[2-(4-cyclobutylpiperazin-1-yl)-2-oxoethyl]-4,5,6,7-tetrahydro-2H-pyrazolo[4,3-c]pyridin-2-y1}-3-methyl[1,2,4]triazolo [4,3-b]pyridazine] |
| < 1 µM | N#CC1CCN(c2ncc3c(n2)CCN(CC(=O)N2CCN(C4CCC4)CC2)C3)CC1 [Compound 690, 1-{6-[2-(4-cyclobutylpiperazin-1-yl)-2-oxoethyl]-5,6,7,8-tetrahydropyrido[4,3-d]pyrimidin-2-yl}piperidine-4-carbonitrile] |
| < 1 µM | NC(=O)C1CCN(c2ncc3c(n2)CCN(CC(=O)N2CCN(C4CCC4)CC2)C3)CC1 [Compound 691, 1-{6-[2-(4-cyclobutylpiperazin-1-yl)-2-oxoethyl]-5,6,7,8-tetrahydropyrido[4,3-d]pyrimidin-2-yl}piperidine-4-carboxamide] |
| < 1 µM | Cc1nc(N2CCOCC2)nc2c1CN(CC(=O)N1CCN(C3CCC3)CC1)CC2 [Compound 692, 6-[2-(4-cyclobutylpiperazin-1-yl)-2-oxoethyl]-4-methyl-2-morpholin-4-yl-5,6,7,8-tetrahydropyrido[4,3-d]pyrimidine] |

Biological target: T1, chimeric human H3 receptor
Experiment: Chimeric human H3 receptor screening GTP binding assay (inhibition of histamine-stimulated GTP-gamma35S binding, Example 8)
Assay type: biochemical
Details: 4 μM of the compound, 1 μM histamine, "†" in Ki of Table II, read-out: percent inhibition of the signal obtained with 1 μM histamine
Method: This Example illustrates a representative screening assay for evaluating inhibition of histamine-stimulated GTP-gamma^35S binding. Such GTP binding activity can be used to identify H3 antagonists and inverse agonists. A compound analyzed in this assay is referred to herein as a “test compound,” and the initial identification of antagonists and inverse agonists is performed using a test compound concentration of 4 μM.
Four independent baculoviral stocks (one directing the expression of the chimeric human H3 receptor and three directing the expression of each of the three subunits of a heterotrimeric G-protein) are used to infect a culture of Sf9 cells as described above. P2 membranes are prepared as described above, and are resuspended by Dounce homogenization (tight pestle) in GTP binding assay buffer (50 mM Tris pH 7.4, 120 mM NaCl, 5 mM MgCl2, 2 mM EGTA, 1 mg/ml BSA, 0.2 mg/ml bacitracin, 0.02 mg/ml aprotinin, 0.01 mg/ml saponin, 10 μM GDP) and added to assay tubes at a concentration of 35 μg protein/reaction tube. Non-radiolabeled test compounds are added to separate reactions at a concentration of 4 μM along with 1 μM histamine (agonist). Reactions are initiated by the addition of […] GTP-gamma^35S with a final assay volume of 0.20 ml.
After a 60-min incubation at room temperature, reactions are terminated by vacuum filtration over GF/C filters (pre-soaked in 50 mM Tris pH 7.4, 120 mM NaCl plus 0.1% BSA) followed by washing with ice-cold buffer (50 mM Tris pH 7.4, 120 mM NaCl). The amount of receptor-bound (and thereby membrane-bound) GTP-gamma^35S is determined by measuring the bound radioactivity, preferably by liquid scintillation spectrometry of the washed filters. Non-specific binding is determined using 10 uM GTP-gammaS and typically represents less than 5 percent of total binding. After subtraction of non-specific binding, data is expressed as percent inhibition of 1 μM histamine signal.
Neutral antagonists are those test compounds that reduce the histamine-stimulated GTP binding activity towards, but not below, baseline levels. In contrast, in the absence of added histamine, inverse agonists reduce the GTP binding activity of the receptor-containing membranes below baseline. Any test compound that elevates GTP binding activity above baseline in the absence of added histamine in this assay is defined as having agonist activity.

| inhibition at 4 µM | Compound |
| --- | --- |
| ≥ 90% | COc1ccc(C(C)C)cc1-c1nc2c(s1)CN(CC(=O)N1CCN(C3CCC3)CC1)CC2 [Compound 337, 5-[2-(4-cyclobutylpiperazin-1-yl)-2-oxoethyl]-2-(5-isopropyl-2-methoxyphenyl)-4,5,6,7-tetrahydro[1,3]thiazolo [5,4-c]pyridine] |
| ≥ 90% | COc1ccc(F)cc1-c1nc2c(s1)CN(CC(=O)N1CCN(C3CCC3)CC1)CC2 [Compound 343, 5-[2-(4-cyclobutylpiperazin-1-yl)-2-oxoethyl]-2-(5-fluoro-2-methoxyphenyl)-4,5,6,7-tetrahydro[1,3]thiazolo [5,4-c]pyridine] |
| ≥ 90% | O=C(CN1CCc2nc(-c3ccccc3Oc3ccccc3)sc2C1)N1CCN(C2CCC2)CC1 [Compound 345, 5-[2-(4-cyclobutylpiperazin-1-yl)-2-oxoethyl]-2-(2-phenoxyphenyl)-4,5,6,7-tetrahydro[1,3] thiazolo[5,4-c]pyridine] |

Same assay, conditions: Table II "Ki", symbol †, 4 μM of the compound, 1 μM histamine, read-out: percent inhibition of the signal obtained with 1 μM histamine

| inhibition at 4 µM | Compound |
| --- | --- |
| ≥ 90% | CC(C)C(C)N1C[C@@H]2C[C@H]1CN2C(=O)CN1CCc2cc(-c3cncnc3)ccc2C1 (stereo in doubt) [Compound 608, 2-{2-[(1S,4S)-5-(1,2-dimethylpropyl)-2,5-diazabicyclo[2.2.1]hept-2-yl]-2-oxoethyl}-6-pyrimidin-5-yl-1,2,3,4-tetrahydroisoquinoline] |
| ≥ 90% | O=C(CN1CCc2cc(-c3cncnc3)ccc2C1)N1C[C@@H]2C[C@H]1CN2C1CCCC1 (stereo in doubt) [Compound 612, 2-{2-[(1S,4S)-5-cyclopentyl-2,5-diazabicyclo[2.2.1]hept-2-yl]-2-oxoethyl}-6-pyrimidin-5-yl-1,2,3,4-tetrahydroisoquinoline] |
| ≥ 90% | CC1CCCC1N1C[C@@H]2C[C@H]1CN2C(=O)CN1CCc2cc(-c3cncnc3)ccc2C1 (stereo in doubt) [Compound 615, 2-{2-[(1S,4S)-5-(2-methylcyclopentyl)-2,5-diazabicyclo[2.2.1]hept-2-yl]-2-oxoethyl}-6-pyrimidin-5-yl-1,2,3,4-tetrahydroisoquinoline] |
| ≥ 90% | O=C(CN1CCc2cc(-c3cncnc3)ccc2C1)N1C[C@@H]2C[C@H]1CN2C1CCCCC1 (stereo in doubt) [Compound 618, 2-{2-[(1S,4S)-5-cyclohexyl-2,5-diazabicyclo[2.2.1]hept-2-yl]-2-oxoethyl}-6-pyrimidin-5-yl-1,2,3,4-tetrahydroisoquinoline] |
| ≥ 90% | COC1CCCCC1N1C[C@@H]2C[C@H]1CN2C(=O)CN1CCc2cc(-c3cncnc3)ccc2C1 (stereo in doubt) [Compound 620, 2-{2-[(1S,4S)-5-(2-methoxycyclohexyl)-2,5-diazabicyclo[2.2.1]hept-2-yl]-2-oxoethyl}-6-pyrimidin-5-yl-1,2,3,4-tetrahydroisoquinoline] |

Source: patent publication US20110082130A1 (LIGAND PHARMACEUTICALS, INC., priority 2006, published 2011)
